Laboratory results as given in ChEMBL document CHEMBL3862002, “Wortmannilactones I-L, new NADH-fumarate reductase inhibitors, induced by adding suberoylanilide hydroxamic acid to the culture medium of Talaromyces wortmannii” (Bioorg Med Chem Lett, 2016).

Columns and labels:
[1] = Inhibition of NADH oxidase in pig heart sub-mitochondrial particles using NADH as substrate after 3 mins measured every 15 sec for 10 mins under aerobic condition; set-up: species or system Sus scrofa
Fumarate reductase = molecular target: T1, Fumarate reductase (Ascaris suum, UniProt F1KRD8); assay: Inhibition of NADH-Fumarate reductase in Ascaris suum muscle sub-mitochondrial particles using disodium fumarate as substrate in presence of NADH after 3 mins measured every 15 sec for 10 mins under anaerobic condition
T1 sequence (F1KRD8 whole entry): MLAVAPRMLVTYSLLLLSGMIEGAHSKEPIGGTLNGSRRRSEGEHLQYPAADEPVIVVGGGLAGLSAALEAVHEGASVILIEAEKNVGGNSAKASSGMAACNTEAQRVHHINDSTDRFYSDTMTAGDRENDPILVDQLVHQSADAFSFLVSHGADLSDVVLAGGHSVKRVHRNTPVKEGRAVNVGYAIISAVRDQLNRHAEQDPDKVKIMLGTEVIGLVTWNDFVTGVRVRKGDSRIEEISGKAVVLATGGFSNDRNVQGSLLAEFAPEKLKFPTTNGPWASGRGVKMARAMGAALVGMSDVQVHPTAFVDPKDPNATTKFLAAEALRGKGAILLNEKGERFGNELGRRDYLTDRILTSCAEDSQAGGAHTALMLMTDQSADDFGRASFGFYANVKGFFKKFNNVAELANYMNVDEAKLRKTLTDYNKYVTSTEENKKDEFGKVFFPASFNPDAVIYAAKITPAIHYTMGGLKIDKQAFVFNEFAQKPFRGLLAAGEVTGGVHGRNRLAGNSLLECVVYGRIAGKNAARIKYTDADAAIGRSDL

SMILES	IC50 [1] [nM]	IC50 (Fumarate reductase) [nM]
C=C1C=C(C)[C@H](/C(C)=C/C=C/C=C/C=C/[C@]2(C)[C@H]3OC(=O)[C@]2(C)C(=O)[C@@H]3C)O[C@H]1C	35000	840
CC1=C[C@@](C)(O)[C@@H](C)O[C@H]1/C(C)=C/C=C/C=C/C=C/C(C)=C/[C@]1(C)[C@H]2OC(=O)[C@]1(C)C(=O)[C@@H]2C	–	2.4
CO[C@@]1(C)C=C(C)[C@H](/C(C)=C/C=C/C=C/C=C/[C@]2(C)[C@H]3OC(=O)[C@]2(C)C(=O)[C@@H]3C)O[C@H]1C	100000	840
CO[C@]1(C)C=C(C)[C@H](/C(C)=C/C=C/C=C/C=C/[C@]2(C)[C@H]3OC(=O)[C@]2(C)C(=O)[C@@H]3C)O[C@H]1C	145000	1350
CC1=C[C@@](C)(O)[C@@H](C)O[C@@H]1/C(C)=C/C=C/C=C/C=C/C(C)=C/[C@]1(C)[C@H]2OC(=O)[C@]1(C)C(=O)[C@@H]2C	–	470
CC1=C[C@](C)(O)[C@H](/C(C)=C/C=C/C=C/C=C/[C@]2(C)[C@H]3OC(=O)[C@]2(C)C(=O)[C@@H]3C)O[C@H]1C	56000	850
Cc1cc(/C=C/c2ccc3cc(N(C)C)ccc3[n+]2C)c(C)n1-c1ccccc1 [PYRVINIUM PAMOATE]	–	500
